# From PubChem BioAssay AID1259411 (Chemical Carcinogenesis Research Information System (CCRIS), 2018)
# Calls of active or inactive are those of the source. The rule behind the calls is not given here.
# Test system: rodent carcinogenicity bioassays, tumor incidence
# Experiment: CCRIS carcinogenicity studies
# Conditions: Dose: 0, Dose: 0
# Outline: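 NCI-built, expert-reviewed records of carcinogenicity and related test outcomes (mutagenicity, tumor promotion/inhibition) compiled from published and report sources, historical span 1985-2011, not updated.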
smiles,measurement,setting,value
COc1cc(/C=C/C(=O)O[C@H]2CC[C@]34C[C@]35CC[C@]3(C)[C@@H]([C@H](C)CCC=C(C)C)CC[C@@]3(C)[C@@H]5CC[C@H]4C2(C)C)ccc1O,carcinogen call,"Species: MOUSE, Strain/Sex: B6C3F1/FEMALE, Route: ORAL, 200, 600, 2000 MG/KG/BW A DAY IN DIET FOR 78 WK (STUDY DURATION: 79 WK), 200, 600, 2000 MG/KG/BW A DAY IN DIET FOR 78 WK (STUDY DURATION: 79 WK)",inactive; negative
same,carcinogen call,"Species: MOUSE, Strain/Sex: B6C3F1/MALE, Route: ORAL, 200, 600, 2000 MG/KG/BW A DAY IN DIET FOR 78 WK (STUDY DURATION: 79 WK), 200, 600, 2000 MG/KG/BW A DAY IN DIET FOR 78 WK (STUDY DURATION: 79 WK)",inactive; negative
same,carcinogen call,"Species: RAT, Strain/Sex: F344/FEMALE, Route: ORAL, 200, 600, 2000 MG/KG/BW/D IN DIET FOR 2 YR (STUDY DURATION: 105 WK), 200, 600, 2000 MG/KG/BW/D IN DIET FOR 2 YR (STUDY DURATION: 105 WK)",inactive; negative
same,carcinogen call,"Species: RAT, Strain/Sex: F344/MALE, Route: ORAL, 200, 600, 2000 MG/KG/BW/D IN DIET FOR 2 YR (STUDY DURATION: 105 WK), 200, 600, 2000 MG/KG/BW/D IN DIET FOR 2 YR (STUDY DURATION: 105 WK)",inactive; negative
CCCCCN(N=O)C(=O)OCC,carcinogen call,"Species: RAT, Strain/Sex: DONRYU/FEMALE, Route: ORAL, 100, 200, 400 PPM IN DRINKING WATER FOR 60 WK, 100, 200, 400 PPM IN DRINKING WATER FOR 60 WK, Tumor Site: Type of Lesion: ORAL CAVITY: PAPILLOMA, CARCINOMA, ESOPHAGUS: PAPILLOMA, CARCINOMA, FORESTOMACH: PAPILLOMA, CARCINOMA, Tumor Site: Type of Lesion: ORAL CAVITY: PAPILLOMA, CARCINOMA, ESOPHAGUS: PAPILLOMA, CARCINOMA, FORESTOMACH: PAPILLOMA, CARCINOMA",active; positive
C=CCN=C=S,carcinogen call,"Species: MOUSE, Strain/Sex: B6C3F1/FEMALE, Route: GAVAGE, 12, 25 MG/KG IN CORN OIL FOR 103 WK (STUDY DURATION: 103 WK), 12, 25 MG/KG IN CORN OIL FOR 103 WK (STUDY DURATION: 103 WK)",inactive; negative
same,carcinogen call,"Species: MOUSE, Strain/Sex: B6C3F1/MALE, Route: GAVAGE, 12, 25 MG/KG IN CORN OIL FOR 103 WK (STUDY DURATION: 103 WK), 12, 25 MG/KG IN CORN OIL FOR 103 WK (STUDY DURATION: 103 WK)",inactive; negative
same,carcinogen call,"Species: RAT, Strain/Sex: F344/FEMALE, Route: GAVAGE, 12, 25 MG/KG IN CORN OIL FOR 103 WK (STUDY DURATION: 103 WK), 12, 25 MG/KG IN CORN OIL FOR 103 WK (STUDY DURATION: 103 WK), Tumor Site: Type of Lesion: INTEGUMENTARY SYSTEM (SUBCUTANEOUS TISSUE): FIBROSARCOMA",equivocal
same,carcinogen call,"Species: RAT, Strain/Sex: F344/MALE, Route: GAVAGE, 12, 25 MG/KG IN CORN OIL FOR 103 WK (STUDY DURATION: 103 WK), 12, 25 MG/KG IN CORN OIL FOR 103 WK (STUDY DURATION: 103 WK), Tumor Site: Type of Lesion: URINARY BLADDER: TRANSITIONAL CELL PAPILLOMA",active; positive
O=S(=O)(O)c1ccc(N=Nc2c(O)ccc3cc(S(=O)(=O)O)ccc23)cc1,carcinogen call,"Species: MOUSE, Strain/Sex: B6C3F1/FEMALE, Route: ORAL, 12500, 25000 PPM IN DIET, 12500, 25000 PPM IN DIET",inactive; negative
same,carcinogen call,"Species: MOUSE, Strain/Sex: B6C3F1/MALE, Route: ORAL, 12500, 25000 PPM IN DIET, 12500, 25000 PPM IN DIET",inactive; negative
same,carcinogen call,"Species: MOUSE, Strain/Sex: SWISS-WEBSTER/FEMALE, Route: DERMAL, 1% IN 0.1 ML DISTILLED WATER 1/WK FOR 19.5 MO (STUDY DURATION: 19.5 MO)",inactive; negative
same,carcinogen call,"Species: MOUSE, Strain/Sex: SWISS-WEBSTER/MALE, Route: DERMAL, 1% IN 0.1 ML DISTILLED WATER 1/WK FOR 19.5 MO (STUDY DURATION: 19.5 MO)",inactive; negative
same,carcinogen call,"Species: RAT, Strain/Sex: F344/FEMALE, Route: ORAL, 12500, 25000 PPM IN DIET, 12500, 25000 PPM IN DIET",inactive; negative
same,carcinogen call,"Species: RAT, Strain/Sex: F344/MALE, Route: ORAL, 12500, 25000 PPM IN DIET, 12500, 25000 PPM IN DIET",inactive; negative
OC[C@@H](O)[C@@H](O)CO,carcinogen call,"Species: DOG, Strain/Sex: BEAGLE/FEMALE, Route: ORAL, 2, 5, 10% IN DIET FOR 53 WK (STUDY DURATION: 53 WK), 2, 5, 10% IN DIET FOR 53 WK (STUDY DURATION: 53 WK)",inactive; negative
same,carcinogen call,"Species: DOG, Strain/Sex: BEAGLE/MALE, Route: ORAL, 2, 5, 10% IN DIET FOR 53 WK (STUDY DURATION: 53 WK), 2, 5, 10% IN DIET FOR 53 WK (STUDY DURATION: 53 WK)",inactive; negative
same,carcinogen call,"Species: RAT, Strain/Sex: WISTAR/FEMALE, Route: ORAL, 2, 5, 10% IN DIET FOR 104 WK (STUDY DURATION: 104 WK), 2, 5, 10% IN DIET FOR 104 WK (STUDY DURATION: 104 WK)",inactive; negative
same,carcinogen call,"Species: RAT, Strain/Sex: WISTAR/MALE, Route: ORAL, 2, 5, 10% IN DIET FOR 104 WK (STUDY DURATION: 104 WK), 2, 5, 10% IN DIET FOR 104 WK (STUDY DURATION: 104 WK)",inactive; negative
COc1cc(OC)nc(NC(=O)NS(=O)(=O)c2cc(NC=O)ccc2C(=O)N(C)C)n1,carcinogen call,"Species: Mouse, Strain/Sex: Crl:CD-1(ICR)BR/Female (51/Group), Route: Oral, 40, 800, 8000 ppm of 94.6% foramsulfuron in diet for 80 wk, study duration 80 wk, 40, 800, 8000 ppm of 94.6% foramsulfuron in diet for 80 wk, study duration 80 wk",inactive; negative
same,carcinogen call,"Species: Mouse, Strain/Sex: Crl:CD-1(ICR)BR/Male (51/Group), Route: Oral, 40, 800, 8000 ppm of 94.6% foramsulfuron in diet for 80 wk, study duration 80 wk, 40, 800, 8000 ppm of 94.6% foramsulfuron in diet for 80 wk, study duration 80 wk",inactive; negative
same,carcinogen call,"Species: Rat, Strain/Sex: Sprague Dawley CRL:CD (IGS) BR/Female (50/Group), Route: Oral, 100, 600, 6000, 20,000 ppm of 94.6% foramsulfuron in diet for 104 wk, study duration 104 wk, 100, 600, 6000, 20,000 ppm of 94.6% foramsulfuron in diet for 104 wk, study duration 104 wk",inactive; negative
same,carcinogen call,"Species: Rat, Strain/Sex: Sprague Dawley CRL:CD (IGS) BR/Male (50/Group), Route: Oral, 100, 600, 6000, 20,000 ppm of 94.6% foramsulfuron in diet for 104 wk, study duration 104 wk, 100, 600, 6000, 20,000 ppm of 94.6% foramsulfuron in diet for 104 wk, study duration 104 wk",inactive; negative
O=c1ccc(=O)[nH][nH]1,carcinogen call,"Species: MOUSE, Strain/Sex: ICR/HA SWISS/FEMALE, Route: SUBCUTANEOUS, 0.5 MG IN 0.1 ML WATER ON D 1 AND 7 OF AGE THEN 0, 1 MG IN 0.2 ML ON D 14 AND 21 FOR A TOTAL DOSE OF 0, 3 MG (STUDY D, 0.5 MG IN 0.1 ML WATER ON D 1 AND 7 OF AGE THEN 0, 1 MG IN 0.2 ML ON D 14 AND 21 FOR A TOTAL DOSE OF 0, 3 MG (STUDY D",inactive; negative
same,carcinogen call,"Species: MOUSE, Strain/Sex: ICR/HA SWISS/FEMALE, Route: SUBCUTANEOUS, 5 MG IN 0.1 ML TRICAPRYLIN SUSPENSION ON D 1 OF AGE THEN 0, 10 MG IN 0.1 ML ON D 7, 0, 20 MG IN 0.2 ML ON D 14 AND 21, 5 MG IN 0.1 ML TRICAPRYLIN SUSPENSION ON D 1 OF AGE THEN 0, 10 MG IN 0.1 ML ON D 7, 0, 20 MG IN 0.2 ML ON D 14 AND 21",inactive; negative
same,carcinogen call,"Species: MOUSE, Strain/Sex: ICR/HA SWISS/MALE, Route: SUBCUTANEOUS, 5 MG IN 0.1 ML TRICAPRYLIN SUSPENSION ON D 1 OF AGE THEN 0, 10 MG IN 0.1 ML ON D 7, 0, 20 MG IN 0.2 ML ON D 14 AND 21, 5 MG IN 0.1 ML TRICAPRYLIN SUSPENSION ON D 1 OF AGE THEN 0, 10 MG IN 0.1 ML ON D 7, 0, 20 MG IN 0.2 ML ON D 14 AND 21, Tumor Site: Type of Lesion: LIVER: HEPATOMA",active; positive
